Patent US7439264B2, “Therapeutic compounds” (President and Fellows of Harvard College, priority 2002, dated 2008)
“And” between values parts separate entries of the source, which are not always exact repeats. Equal values may be shown once. “Also recorded” adds a separate entry of the source. Read-outs that look alike come from different tables or passages of the source.

What was measured:
[1] = target: serotonin transporter (SERT) (UniProt A7KAX8); experiment: Competition binding with [3H]citalopram at the serotonin transporter
Protocol: (§1) The affinities (IC50) of the compounds for the dopamine and serotonin transporters were determined in competition studies using [3H]2β-carbomethoxy-3β-(4-fluorophenyl)-8-methyl-8-azabicyclo[3.2.1]octane ([^3H]WIN 35,428) to label the dopamine transporter and [^3H]citalopram to label the serotonin transporter. Competition studies were conducted with a fixed concentration of radioligand and a range of concentrations of the test compound. […] The cells were then exhaustively washed to remove non-covalently bound ligand and binding of cocaine (20 nM) and dopamine uptake (Vmax) were compared.

[2] = target: T1, human dopamine transporter (Homo sapiens, UniProt Q01959); experiment: [3H]cocaine binding in hDAT HEK-293 cells after pre-incubation with compound and washing; conditions: for Inhibition of cocaine binding after 24 h (%): 24-h pre-incubation, cells extensively washed, [3H]cocaine 20 nM, HEK-293 hDAT; for irreversible binding to the DAT: 24 hour incubation, then washing
T1 construct: expressed in transfected cells; host or cells: HEK-293

[3] = target: T2, dopamine transporter (DAT) (UniProt Q9GJT6); experiment: Competition binding with [3H]WIN 35,428 at the dopamine transporter
T2 construct: Dopamine transporter IC50 (nM) [3H]WIN 35,428; other: unit not given
Protocol: as §1

[4] = target: T1, human dopamine transporter; experiment: [3H]dopamine uptake in hDAT HEK-293 cells after pre-incubation with compound and washing; type: cell-based; set-up: Inhibition of DA uptake after 24 h (%) / Inhibition of DA uptake: concentration or dose not given beside the values; conditions: for Inhibition of DA uptake after 24 h (%): 24-h pre-incubation, cells extensively washed, HEK-293 hDAT; for decrease of [3H]dopamine transport / [3H]Dopamine transport % of control: 24 hour pre-incubation
[5] = target: DAT (Macaca fascicularis, UniProt Q9GJT6); conditions: quoted for known ligands; cited from earlier work
[6] = Table 5, read-out: Serotonin transporter IC50 (nM) [3H]citalopram
[7] = unit inferred, read-out: SERT (binding, Table 6)
[8] = Table 5, read-out: Dopamine transporter IC50 (nM) [3H]WIN 35,428
[9] = unit inferred, read-out: DAT (binding, Table 6)
[10] = 24 hour pre-incubation, O-1893 (1 uM)
[11] = 24 hours, concentration not stated (n=4)
[12] = 24 hour pre-incubation with O-2153

T1 sequence (Q01959 whole entry): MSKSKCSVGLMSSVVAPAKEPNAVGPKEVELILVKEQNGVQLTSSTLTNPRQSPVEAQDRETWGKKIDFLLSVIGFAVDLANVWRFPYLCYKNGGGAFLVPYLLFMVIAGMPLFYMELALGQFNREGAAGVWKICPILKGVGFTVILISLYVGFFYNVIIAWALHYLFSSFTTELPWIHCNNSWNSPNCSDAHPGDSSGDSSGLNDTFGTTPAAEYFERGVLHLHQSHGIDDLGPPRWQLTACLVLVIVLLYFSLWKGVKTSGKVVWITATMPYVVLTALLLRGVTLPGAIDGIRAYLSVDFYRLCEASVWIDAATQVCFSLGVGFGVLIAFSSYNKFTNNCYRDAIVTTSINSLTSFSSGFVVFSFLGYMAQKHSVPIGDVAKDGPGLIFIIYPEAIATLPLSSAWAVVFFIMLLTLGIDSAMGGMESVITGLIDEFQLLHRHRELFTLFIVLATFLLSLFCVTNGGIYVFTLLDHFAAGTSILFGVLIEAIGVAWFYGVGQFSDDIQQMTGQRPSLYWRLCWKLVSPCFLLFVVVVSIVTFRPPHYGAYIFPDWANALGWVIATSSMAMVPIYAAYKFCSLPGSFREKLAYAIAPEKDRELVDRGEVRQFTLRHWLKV
Sequence of DAT (Q9GJT6 whole entry): as the sequence (Q01959 whole entry) above, with V24M, I137V, P194S, S198G, D200N, S201G, S202P counted along it

O=C(CCC1CO1)OCC1C2CCC(CC1c1ccc(Cl)c(Cl)c1)O2 (racemic) [Compound O-1834, 3-Oxiranyl-propionic acid [3α-(3,4-dichlorophenyl)-8-oxabicyclo[3.2.1]oct-3β-yl]methyl ester]
IC50 [1, 6]: 292 nM
IC50 [1, 7]: 294 nM
Inhibition of cocaine binding after 24 h (%) [2]: 18%
Inhibition of Cocaine Binding ([2]; Table 6, incub time 24 h): 18%
IC50 [3, 8]: 17 nM
IC50 [3, 9]: 17 nM
Inhibition of DA uptake after 24 h (%) [4]: 68%
Inhibition of DA uptake ([4]; Table 6, incub time 24 h): 68%

COC(=O)C1C2CCC(CC1c1ccc(Cl)c(Cl)c1)O2 (stereo not drawn) [2β-carbomethoxy-3α-(3′,4′-dichlorophenyl)-8-oxabicyclo[3.2.1]octane]
IC50 [5]: 2.34 nM

COC(=O)[C@H]1[C@@H](OC(=O)c2ccccc2)C[C@@H]2CC[C@H]1N2C [(−)-Cocaine, cocaine, reference compound]
IC50 [1, 6]: 270 nM
IC50 [3, 8]: 95 nM

COCC(=O)OCCCN1C2CCC1C(C(=O)OC)C(c1ccc(F)cc1)C2 (stereo not drawn) [Compound O-1071, 2β-Carbomethoxy-3β-(4-fluorophenyl)-8-(3-methoxyacetoxypropyl)-8-azabicyclo[3 2.1]octane]
IC50 [1, 7]: 3000 nM
Inhibition of Cocaine Binding ([2]; Table 6, incub time 24 h): 0%
IC50 [3, 9]: 125 nM
Inhibition of DA uptake ([4]; Table 6, incub time 24 h): 0%

COC(=O)C1C(c2ccc(F)cc2)CC2CCC1N2CCOC(C)=O (stereo not drawn) [Compound O-1103, 2β-Carbomethoxy-3β-(4-fluorophenyl)-8-(2-acetoxyethyl)-8-azabicyclo[3.2.1]octane]
IC50 ([1]; read-out: SERT (binding, Table 6), unit inferred): 200 nM
Inhibition of Cocaine Binding ([2]; Table 6, incub time 24 h): 0%
IC50 ([3]; read-out: DAT (binding, Table 6), unit inferred): 20 nM
Inhibition of DA uptake ([4]; Table 6, incub time 24 h): 0%

COC(=O)C1C(c2ccc(F)cc2)CC2CCC1N2CCN1C(=O)C=CC1=O (stereo not drawn) [Compound O-1233, 2β-Carbomethoxy-3β-(4-fluorophenyl)-8-(2-maleimidoethyl)-8-azabicyclo[3.2.1]octane]
IC50 [1, 7]: 3000 nM
Inhibition of Cocaine Binding ([2]; Table 6, incub time 1 h): 50%/1 h
IC50 [3, 9]: 237 nM

CCN1C(=O)C=CC1=O [Compound O-1765]
Inhibition of Cocaine Binding ([2]; Table 6, incub time 24 h): 35%
Inhibition of DA uptake ([4]; Table 6, incub time 24 h): 35%

C=CCCC(=O)OCC1C2CCC(CC1c1ccc(Cl)c(Cl)c1)O2 (stereo not drawn) [Compound O-1893, pent-4-enoic acid-(3α-(3,4-dichlorophenyl)-8-oxabicyclo[3.2.1]oct-2β-yl)methyl ester]
IC50 [1, 6]: 593 nM
Inhibition of cocaine binding after 24 h (%) [2]: 63%
[3H]cocaine binding % of control ([2]; 1 hour pre-incubation): 12 % of control and 10 % of control and 7 % of control
irreversible binding to the DAT [2]: no irreversible binding took place
decline of specific [3H]cocaine binding sites ([2]; 24 hour pre-incubation, higher concentration (5 uM, different cells)): 62%
Tot- NS (dpms) [2, 10]: 3,154 dpms and 3,853 dpms and 4,913 dpms and 6,331 dpms
[3H]cocaine binding % of control [2, 10]: 45 % of control and 43 % of control and 42 % of control and 49 % of control
reduction of [3H]cocaine binding (CDPM) [2, 11]: more than 50%
IC50 [3, 8]: 20 nM
Inhibition of DA uptake after 24 h (%) [4]: 23%
Inhibition of DA uptake after 24 h (%) ([4]; listed as 3): much reduced; also recorded: no inhibition
Dopamine transport % of control ([4]; 1 hour pre-incubation): 29 % of control and 43 % of control and 27 % of control
decrease of [3H]dopamine transport ([4]; 1 uM): 5%
decrease of [3H]dopamine transport ([4]; higher concentration (5 uM, different cells)): 23% and 22%
[3H]Dopamine transport % of control ([4]; O-1893 (1 uM)): 91 % of control and 98 % of control and 95 % of control
[3H]Dopamine transport % of control ([4]; O-1893-2 (5 uM, different cells), 5 µM): 80 % of control and 72 % of control and 81 % of control and 90 % of control and 67 % of control
reduction of [3H]dopamine transport [4, 11]: reduced to a lesser extent
transporter affinity for dopamine ([4]; initially, within one hour of preincubation (n=3)): reduced

COC(=O)C1C(c2ccc(F)cc2)CC2CCC1N2CCOC(=O)CCC1CO1 (stereo not drawn) [Compound O-1899, 2β-Carbomethoxy-3β-(4-fluorophenyl)-8-[2-(3-oxiranylpropionyloxy)ethyl]-8-azabicyclo[3.2.1]octane]
IC50 [1, 7]: 230 nM
Inhibition of Cocaine Binding ([2]; Table 6, incub time 24 h): 0%
Inhibition of Cocaine Binding ([2]; Table 6, incub time 48 h): 40%
IC50 [3, 9]: 53 nM
Inhibition of DA uptake ([4]; Table 6, incub time 24 h): 0%
Inhibition of DA uptake ([4]; Table 6, incub time 48 h): 20%

CC(C)CC(=O)OCC1C2CCC(CC1c1ccc(Cl)c(Cl)c1)O2 (stereo not drawn) [Compound O-2059, 3-Methylbutanoic acid-[3α-(3,4-dichlorophenyl)-8-oxabicyclo[3.2.1]oct-2β-yl]methyl ester]
IC50 [1, 6]: 515 nM
Inhibition of cocaine binding after 24 h (%) [2]: 60%
IC50 [3, 8]: 75 nM
Inhibition of DA uptake after 24 h (%) [4]: 60%

CCCCC(=O)OCC1C2CCC(CC1c1ccc(Cl)c(Cl)c1)O2 (stereo not drawn) [Compound O-2102, Pentanoic acid-[3α-(3,4-dichlorophenyl)-8-oxabicyclo[3.2.1]oct-2β-yl]methyl ester]
IC50 [1, 6]: 917 nM
Inhibition of cocaine binding after 24 h (%) [2]: 0%
IC50 [3, 8]: 71 nM
Inhibition of DA uptake after 24 h (%) [4]: 0%

C=CCCCOCC1C2CCC(CC1c1ccc(Cl)c(Cl)c1)O2 (stereo not drawn) [Compound O-2153, 3α-(3,4-dichlorophenyl)-2β-pent-4-enyloxymethyl-8-oxabicyclo[3.2.1]octane]
IC50 [1, 6]: 755 nM
Inhibition of cocaine binding after 24 h (%) [2]: 80%
irreversible binding to the DAT [2]: bound irreversibly
Tot- NS (dpms) (column head not given, as Table 3) [2, 12]: 12,216 and 6,792
[3H]cocaine binding % of control (column head not given, as Table 3) [2, 12]: 28 and 18
IC50 [3, 8]: 58 nM
Inhibition of DA uptake after 24 h (%) [4]: 40%
[3H]Dopamine transport % of control (column head not given, as Table 3) [4, 12]: 51 and 54

C=CCOC(=O)C1C2CCC(CC1c1ccc(Cl)c(Cl)c1)O2 (centres unmarked) [Compound O-2227]
IC50 [1, 7]: 32 nM
Inhibition of Cocaine Binding ([2]; Table 6, incub time 1 h): 0%
Inhibition of Cocaine Binding ([2]; Table 6, incub time 24 h): 55%
IC50 [3, 9]: 3 nM
Inhibition of DA uptake ([4]; Table 6, incub time 1 h): 0%
Inhibition of DA uptake ([4]; Table 6, incub time 24 h): 40%

O=C(OCCN1C(=O)C=CC1=O)C1C(c2ccc(F)cc2)CC2CCC1N2CCN1C(=O)C=CC1=O (centres unmarked) [Compound O-2315]
IC50 [1, 7]: 14000 nM
IC50 [3, 9]: 2000 nM

O=C(OCCCN1C(=O)C=CC1=O)C1C(c2ccc(F)cc2)CC2CCC1N2CCN1C(=O)C=CC1=O (centres unmarked) [Compound O-2335]
IC50 [1, 7]: 10000 nM
IC50 [3, 9]: 300 nM

O=C(OCCCN1C(=O)C=CC1=O)C1C(c2ccc(F)cc2)CC2CCC1N2CCCN1C(=O)C=CC1=O (centres unmarked) [Compound O-2492]
IC50 [1, 7]: 2000 nM
IC50 [3, 9]: 237 nM

C=CCCC(=O)OCC1C(c2ccc(F)cc2)CC2CCC1N2C (centres unmarked) [Compound O-2517]
IC50 [3, 9]: 60 nM

C=CCCCOCC1C(c2ccc(F)cc2)CC2CCC1N2C (centres unmarked) [Compound O-2528]
IC50 [3, 9]: 41 nM

C=CCCNC(=O)C1C(c2ccc(F)cc2)CC2CCC1N2C (centres unmarked) [Compound O-2578]
IC50 [3, 9]: 800 nM

C=CCCNCC1C(c2ccc(F)cc2)CC2CCC1N2C (centres unmarked) [Compound O-2583]
IC50 [3, 9]: 500 nM

CCN1C(=O)C=CC1=O [N-Ethylmaleimide, N-ethylmaleimide, reference compound]
IC50 [1, 6]: > 100000 nM
Inhibition of cocaine binding after 24 h (%) [2]: 35%
irreversible binding to the DAT [2]: did manifest irreversible binding
IC50 ([3]; read-out: Dopamine transporter IC50 (nM) [3H]WIN 35,428, Table 5): > 100000 nM
Inhibition of DA uptake after 24 h (%) [4]: 35%

COC(=O)C1C(c2ccc(F)cc2)CC2CCC1N2C (stereo not drawn) [WIN 35,428, 2β-carbomethoxy-3β-(4-fluorophenyl)-8-methyl-8-azabicyclo[3.2.1]octane, reference compound]
IC50 [1, 6]: 160 nM
irreversible binding to the DAT [2]: did not bind irreversibly
IC50 [5]: 11 nM
IC50 [3, 8]: 11 nM
